Reference: patent publication US20250026759A1 (Merck Sharp & Dohme LLC, priority 2023, published 2025)

These compounds were tested on PBMCs infected with VSV-G pseudotyped HIV virus (VSV-G/pNLG1-P2A-ΔEnv) (assay: cells). Conditions: Homo sapiens, PBMC, read-out: TACK EC50.
Type: cell-based, human

Point of comparison: `Cn1ccc(-c2ccn(Cc3cc4c(cc3F)[C@@](C#CC3CC3)(C(C)(F)F)NC(=O)N4)n2)n1` [Example 53, (S)-4-(cyclopropylethynyl)-4-(1,1-difluoroethyl)-6-fluoro-7-((1′-methyl-1H,1′H-[3,3′-bipyrazol]-1-yl)methyl)-3,4-dihydroquinazolin-2(1H)-one], EC50 28.3 nM. Against it:
- O=C1Nc2cc(Cn3cn[nH]c3=O)c(F)cc2[C@@](C#CC2CC2)(C(F)(F)F)N1 [Example 34, (S)-4-(cyclopropylethynyl)-6-fluoro-7-((5-oxo-1,5-dihydro-4H-1,2,4-triazol-4-yl)methyl)-4-(trifluoromethyl)-3,4-dihydroquinazolin-2(1H)-one] — 1.6-fold higher, 44.6 nM
- CC(F)(F)[C@@]1(C#CC2CC2)NC(=O)Nc2cc(Cn3c(Cl)n[nH]c3=O)c(F)cc21 [Example 35, (S)-7-((3-chloro-5-oxo-1,5-dihydro-4H-1,2,4-triazol-4-yl)methyl)-4-(cyclopropylethynyl)-4-(1,1-difluoroethyl)-6-fluoro-3,4-dihydroquinazolin-2(1H)-one] — 2.6-fold lower, 10.9 nM
- O=C1Nc2cc(Cn3c(Cl)n[nH]c3=O)c(F)cc2[C@@](C#CC2CC2)(C(F)(F)F)N1 [Example 36, (S)-7-((3-chloro-5-oxo-1,5-dihydro-4H-1,2,4-triazol-4-yl)methyl)-4-(cyclopropylethynyl)-6-fluoro-4-(trifluoromethyl)-3,4-dihydroquinazolin-2(1H)-one] — 2.1-fold lower, 13.3 nM
- O=C1Nc2cc(Cn3c(C4CC4)n[nH]c3=O)c(F)cc2[C@@](C#CC2CC2)(C(F)(F)F)N1 [Example 37, (S)-7-((3-cyclopropyl-5-oxo-1,5-dihydro-4H-1,2,4-triazol-4-yl)methyl)-4-(cyclopropylethynyl)-6-fluoro-4-(trifluoromethyl)-3,4-dihydroquinazolin-2(1H)-one] — 1.5-fold higher, 42.9 nM
- Cc1n[nH]c(=O)n1Cc1cc2c(cc1F)[C@@](C#CC1CC1)(C(C)(F)F)NC(=O)N2 [Example 38, (S)-4-(cyclopropylethynyl)-4-(1,1-difluoroethyl)-6-fluoro-7-((3-methyl-5-oxo-1,5-dihydro-4H-1,2,4-triazol-4-yl)methyl)-3,4-dihydroquinazolin-2(1H)-one] — within 1.5-fold, 23 nM
- O=C1Nc2cc(Cn3c(=O)[nH]c4cnccc43)c(F)cc2[C@@](C#CC2CC2)(C(F)(F)F)N1 [Example 39, (S)-4-(cyclopropylethynyl)-6-fluoro-7-((2-oxo-2,3-dihydro-1H-imidazo[4,5-c]pyridin-1-yl)methyl)-4-(trifluoromethyl)-3,4-dihydroquinazolin-2(1H)-one] — 2.1-fold lower, 13.7 nM
- CC(F)(F)[C@@]1(C#CC2CC2)NC(=O)Nc2cc(Cn3ccc4c3C(=O)NC4)c(F)cc21 [Example 40, (S)-4-(cyclopropylethynyl)-4-(1,1-difluoroethyl)-6-fluoro-7-((6-oxo-5,6-dihydropyrrolo[3,4-b]pyrrol-1(4H)-yl)methyl)-3,4-dihydroquinazolin-2(1H)-one] — 4.8-fold lower, 5.9 nM
- O=C1Nc2cc(Cn3c(=O)[nH]c4ccncc43)c(F)cc2[C@@](C#CC2CC2)(C(F)(F)F)N1 [Example 41, (S)-4-(cyclopropylethynyl)-6-fluoro-7-((2-oxo-1,2-dihydro-3H-imidazo[4,5-c]pyridin-3-yl)methyl)-4-(trifluoromethyl)-3,4-dihydroquinazolin-2(1H)-one] — within 1.5-fold, 26.1 nM
- CN1C(=O)Nc2cc(CN3C(=O)CNC3=O)c(F)cc2[C@@]1(C#CC1CC1)C(F)(F)F [Example 42, (S)-3-((4-(cyclopropylethynyl)-6-fluoro-3-methyl-2-oxo-4-(trifluoromethyl)-1,2,3,4-tetrahydroquinazolin-7-yl)methyl)imidazolidine-2,4-dione] — within 1.5-fold, 38.8 nM
- CC(F)(F)[C@@]1(C#CC2CC2)NC(=O)Nc2cc(Cn3ccc(N)n3)c(F)cc21 [Example 43, (S)-7-((3-amino-1H-pyrazol-1-yl)methyl)-4-(cyclopropylethynyl)-4-(1,1-difluoroethyl)-6-fluoro-3,4-dihydroquinazolin-2(1H)-one] — 3.3-fold lower, 8.5 nM
- Cc1cc(N)nn1Cc1cc2c(cc1F)[C@@](C#CC1CC1)(C(C)(F)F)NC(=O)N2 [Example 44, (S)-7-((3-amino-5-methyl-1H-pyrazol-1-yl)methyl)-4-(cyclopropylethynyl)-4-(1,1-difluoroethyl)-6-fluoro-3,4-dihydroquinazolin-2(1H)-one] — within 1.5-fold, 19.5 nM
- Cc1cn(Cc2cc3c(cc2F)[C@@](C#CC2CC2)(C(C)(F)F)NC(=O)N3)nc1N [Example 45, (S)-7-((3-amino-4-methyl-1H-pyrazol-1-yl)methyl)-4-(cyclopropylethynyl)-4-(1,1-difluoroethyl)-6-fluoro-3,4-dihydroquinazolin-2(1H)-one] — 2.2-fold lower, 13.1 nM
- Nc1ccn(Cc2cc3c(cc2F)[C@@](C#CC2CC2)(C(F)(F)C2CC2)NC(=O)N3)n1 [Example 46, (S)-7-((3-amino-1H-pyrazol-1-yl)methyl)-4-(cyclopropyldifluoromethyl)-4-(cyclopropylethynyl)-6-fluoro-3,4-dihydroquinazolin-2(1H)-one] — within 1.5-fold, 26.7 nM
- CC(F)(F)[C@@]1(C#CC2CC2)NC(=O)Nc2cc(Cn3ccc(CCO)n3)c(F)cc21 [Example 47, (S)-4-(cyclopropylethynyl)-4-(1,1-difluoroethyl)-6-fluoro-7-((3-(2-hydroxyethyl)-1H-pyrazol-1-yl)methyl)-3,4-dihydroquinazolin-2(1H)-one] — within 1.5-fold, 37.7 nM
- CC(F)(F)[C@@]1(C#CC2CC2)NC(=O)Nc2cc(Cn3ccc(CO)n3)c(Cl)cc21 [Example 48, (S)-6-chloro-4-(cyclopropylethynyl)-4-(1,1-difluoroethyl)-7-((3-(hydroxymethyl)-1H-pyrazol-1-yl)methyl)-3,4-dihydroquinazolin-2(1H)-one] — within 1.5-fold, 29.6 nM
- CC(F)(F)[C@@]1(C#CC2CC2)NC(=O)Nc2cc(Cn3ccnc3CO)c(F)cc21 [Example 49, (S)-4-(cyclopropylethynyl)-4-(1,1-difluoroethyl)-6-fluoro-7-((2-(hydroxymethyl)-1H-imidazol-1-yl)methyl)-3,4-dihydroquinazolin-2(1H)-one] — within 1.5-fold, 41.8 nM
- CC(F)(F)[C@@]1(C#CC2CC2)NC(=O)Nc2cc(Cn3ccc(-c4cc[nH]n4)n3)c(F)cc21 [Example 52, (S)-7-(1H,1′H-[3,3′-bipyrazol]-1-ylmethyl)-4-(cyclopropylethynyl)-4-(1,1-difluoroethyl)-6-fluoro-3,4-dihydroquinazolin-2(1H)-one] — the same, 28.3 nM
- COCc1ccn(Cc2cc3c(cc2F)[C@@](C#CC2CC2)(C(C)(F)F)NC(=O)N3)n1 [Example 54, (S)-4-(cyclopropylethynyl)-4-(1,1-difluoroethyl)-6-fluoro-7-((3-(methoxymethyl)-1H-pyrazol-1-yl)methyl)-3,4-dihydroquinazolin-2(1H)-one] — within 1.5-fold, 33.5 nM
- CC(F)(F)[C@@]1(C#CC2CC2)NC(=O)Nc2cc(Cn3cccn3)c(F)cc21 [Example 55, (S)-7-((1H-pyrazol-1-yl)methyl)-4-(cyclopropylethynyl)-4-(1,1-difluoroethyl)-6-fluoro-3,4-dihydroquinazolin-2(1H)-one] — within 1.5-fold, 21.7 nM
- CC(F)(F)[C@@]1(C#CC2CC2)NC(=O)Nc2cc(Cn3ccnc3)c(F)cc21 [Example 56, (S)-7-((1H-imidazol-1-yl)methyl)-4-(cyclopropylethynyl)-4-(1,1-difluoroethyl)-6-fluoro-3,4-dihydroquinazolin-2(1H)-one] — within 1.5-fold, 28 nM
- COc1ccn(Cc2cc3c(cc2F)[C@@](C#CC2CC2)(C(C)(F)F)NC(=O)N3)n1 [Example 57, (S)-4-(cyclopropylethynyl)-4-(1,1-difluoroethyl)-6-fluoro-7-((3-methoxy-1H-pyrazol-1-yl)methyl)-3,4-dihydroquinazolin-2(1H)-one] — 2.2-fold lower, 12.8 nM
- CC(F)(F)[C@@]1(C#CC2CC2)NC(=O)Nc2cc(Cn3nc(N)cc3Cl)c(F)cc21 [Example 60, (S)-7-((3-amino-5-chloro-1H-pyrazol-1-yl)methyl)-4-(cyclopropylethynyl)-4-(1,1-difluoroethyl)-6-fluoro-3,4-dihydroquinazolin-2(1H)-one] — within 1.5-fold, 28.9 nM
- CC(F)(F)[C@@]1(C#CC2CC2)NC(=O)Nc2cc(Cn3[nH]c(=O)c4c3CCC4)c(F)cc21 [Example 61, (S)-4-(cyclopropylethynyl)-4-(1,1-difluoroethyl)-6-fluoro-7-((3-oxo-3,4,5,6-tetrahydrocyclopenta[c]pyrazol-1(2H)-yl)methyl)-3,4-dihydroquinazolin-2(1H)-one] — within 1.5-fold, 30.6 nM
- NC(=O)c1nccn1Cc1cc2c(cc1F)[C@@](C#CC1CC1)(C(F)(F)C1CC1)NC(=O)N2 [Example 62, (S)-1-((4-(cyclopropyldifluoromethyl)-4-(cyclopropylethynyl)-6-fluoro-2-oxo-1,2,3,4-tetrahydroquinazolin-7-yl)methyl)-1H-imidazole-2-carboxamide] — within 1.5-fold, 31.9 nM
- CC(F)(F)[C@@]1(C#CC2CC2)NC(=O)Nc2cc(Cn3ccc(OC(F)F)n3)c(F)cc21 [Example 63, (S)-4-(cyclopropylethynyl)-4-(1,1-difluoroethyl)-7-((3-(difluoromethoxy)-1H-pyrazol-1-yl)methyl)-6-fluoro-3,4-dihydroquinazolin-2(1H)-one] — within 1.5-fold, 33.5 nM
- COCc1cnn(Cc2cc3c(cc2F)[C@@](C#CC2CC2)(C(C)(F)F)NC(=O)N3)c1 [Example 64, (S)-4-(cyclopropylethynyl)-4-(1,1-difluoroethyl)-6-fluoro-7-((4-(methoxymethyl)-1H-pyrazol-1-yl)methyl)-3,4-dihydroquinazolin-2(1H)-one] — within 1.5-fold, 34 nM
- COCc1ncn(Cc2cc3c(cc2F)[C@@](C#CC2CC2)(C(C)(F)F)NC(=O)N3)n1 [Example 65, (S)-4-(cyclopropylethynyl)-4-(1,1-difluoroethyl)-6-fluoro-7-((3-(methoxymethyl)-1H-1,2,4-triazol-1-yl)methyl)-3,4-dihydroquinazolin-2(1H)-one] — within 1.5-fold, 38.1 nM
- COCc1nn(Cc2cc3c(cc2F)[C@@](C#CC2CC2)(C(C)(F)F)NC(=O)N3)cc1Cl [Example 66, (S)-7-((4-chloro-3-(methoxymethyl)-1H-pyrazol-1-yl)methyl)-4-(cyclopropylethynyl)-4-(1,1-difluoroethyl)-6-fluoro-3,4-dihydroquinazolin-2(1H)-one] — within 1.5-fold, 38.9 nM
